Experimental data from patent publication US9884839B2, “Inhibitors of 17Beta-hydroxysteroid dehydrogenases type 1 and type 2” (ElexoPharm GmbH, priority 2014, dated 2018).
Read-outs that look alike come from different tables or passages of the source.

How the values were obtained:
mouse 17β-HSD2 = target: T1, mouse 17β-HSD2 (Mus musculus, UniProt P51658); experiment: Inhibition of mouse 17β-HSD2 (liver microsomal fraction); assay type: biochemical; conditions: for inhibition at 1 µM: read-out: Inhibition @ 1 μM m17β-HSD2; for IC50: read-out: IC50 m17β-HSD2
T1 construct: The pellet fractions containing the microsomal 17β-HSD2 were used for the determination of E1 formation; from tissue; host or cells: mouse liver, microsomal fraction
T1 sequence (P51658 1-381): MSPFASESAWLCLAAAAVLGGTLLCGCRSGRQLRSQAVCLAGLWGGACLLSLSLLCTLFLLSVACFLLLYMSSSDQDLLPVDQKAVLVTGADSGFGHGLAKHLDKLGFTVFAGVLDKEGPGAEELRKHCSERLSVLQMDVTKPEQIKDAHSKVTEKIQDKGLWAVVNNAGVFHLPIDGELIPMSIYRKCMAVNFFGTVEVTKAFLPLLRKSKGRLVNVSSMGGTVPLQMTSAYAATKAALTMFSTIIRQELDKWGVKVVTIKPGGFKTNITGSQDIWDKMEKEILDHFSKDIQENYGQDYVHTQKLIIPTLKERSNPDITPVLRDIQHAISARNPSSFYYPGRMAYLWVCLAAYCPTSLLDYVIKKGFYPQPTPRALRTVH

mouse 17β-HSD1 = target: T2, mouse 17β-HSD1 (Mus musculus, UniProt P51656); experiment: Inhibition of mouse 17β-HSD1 (recombinant, HEK293 lysate); assay type: biochemical
T2 construct: made in house; host or cells: HEK293 cells, transient transfection; 1,000 g supernatant of the cell lysate
T2 sequence (P51656 1-344): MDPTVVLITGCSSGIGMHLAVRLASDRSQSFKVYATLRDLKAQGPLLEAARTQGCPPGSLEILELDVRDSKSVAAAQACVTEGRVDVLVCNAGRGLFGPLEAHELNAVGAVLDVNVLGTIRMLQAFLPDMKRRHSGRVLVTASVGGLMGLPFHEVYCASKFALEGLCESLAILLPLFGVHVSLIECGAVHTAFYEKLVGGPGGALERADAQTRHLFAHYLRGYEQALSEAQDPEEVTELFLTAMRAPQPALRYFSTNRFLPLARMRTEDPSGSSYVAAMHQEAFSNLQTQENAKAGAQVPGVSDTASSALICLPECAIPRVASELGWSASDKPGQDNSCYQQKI

rat 17β-HSD2 = target: T3, rat 17β-HSD2 (Rattus norvegicus, UniProt Q62730); experiment: Inhibition of rat 17β-HSD2 (liver microsomal fraction); assay type: biochemical; conditions: read-out: % Inhibition r17β-HSD2
T3 construct: The pellet fractions containing the microsomal 17β-HSD2 were used for the determination of E1 formation; from tissue; host or cells: rat liver, microsomal fraction
T3 sequence (Q62730 1-381): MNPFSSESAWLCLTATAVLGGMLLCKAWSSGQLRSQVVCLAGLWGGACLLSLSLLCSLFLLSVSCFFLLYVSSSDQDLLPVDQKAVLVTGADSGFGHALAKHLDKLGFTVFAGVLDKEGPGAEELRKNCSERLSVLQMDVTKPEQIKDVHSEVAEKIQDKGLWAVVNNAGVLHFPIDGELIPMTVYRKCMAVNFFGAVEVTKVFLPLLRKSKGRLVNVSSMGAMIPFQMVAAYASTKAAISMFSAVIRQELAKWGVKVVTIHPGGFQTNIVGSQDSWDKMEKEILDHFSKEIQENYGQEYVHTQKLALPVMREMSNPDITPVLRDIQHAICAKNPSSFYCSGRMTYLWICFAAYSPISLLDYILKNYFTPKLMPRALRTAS

rat 17β-HSD1 = target: T4, rat 17β-HSD1 (Rattus norvegicus, UniProt P51657); experiment: Inhibition of rat 17β-HSD1 (recombinant, HEK293 lysate); assay type: biochemical; conditions: for inhibition at […] / inhibition at 5 µM: read-out: % Inhibition r17β-HSD1; for inhibition at 5 µM: Cmpd conc. 5000 nM
T4 construct: made in house; host or cells: HEK293 cells, transient transfection; 1,000 g supernatant of the cell lysate
T4 sequence (P51657 1-344): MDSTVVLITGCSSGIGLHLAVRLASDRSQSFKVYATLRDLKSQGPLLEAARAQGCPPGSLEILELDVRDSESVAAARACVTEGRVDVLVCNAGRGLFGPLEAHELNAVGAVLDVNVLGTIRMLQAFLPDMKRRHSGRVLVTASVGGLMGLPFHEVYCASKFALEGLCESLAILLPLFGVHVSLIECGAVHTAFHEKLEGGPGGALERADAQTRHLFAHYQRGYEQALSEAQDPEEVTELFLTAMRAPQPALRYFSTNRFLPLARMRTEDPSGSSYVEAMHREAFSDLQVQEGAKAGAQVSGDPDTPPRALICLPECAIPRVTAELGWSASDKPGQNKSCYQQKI

human 17β-HSD1 = target: T5, human 17β-HSD1 (Homo sapiens, UniProt P14061); experiment: Inhibition of human 17β-HSD1 (conversion of [3H]-E1 to E2, HPLC radioflow detection); assay type: biochemical
T5 construct: For the partial purification of 17β-HSD1, the cytosolic fraction was precipitated with ammonium sulfate; from tissue; host or cells: human placenta, cytosolic fraction, ammonium sulfate precipitate
T5 sequence (P14061 1-328): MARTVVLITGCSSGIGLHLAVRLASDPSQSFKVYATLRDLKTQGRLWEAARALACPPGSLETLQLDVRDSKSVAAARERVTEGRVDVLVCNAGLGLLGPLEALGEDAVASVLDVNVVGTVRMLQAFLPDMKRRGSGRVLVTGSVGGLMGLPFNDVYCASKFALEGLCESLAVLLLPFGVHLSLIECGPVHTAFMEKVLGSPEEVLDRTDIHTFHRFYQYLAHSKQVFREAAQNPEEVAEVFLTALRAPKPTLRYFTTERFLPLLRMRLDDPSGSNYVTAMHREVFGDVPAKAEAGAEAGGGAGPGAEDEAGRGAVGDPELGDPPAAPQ

[1] = human liver S9, 1 mg/mL; unit not given
human 17β-HSD2 = target: T6, human 17β-HSD2 (Homo sapiens, UniProt P37059); experiment: Inhibition of human 17β-HSD2 (conversion of [3H]-E2 to E1); assay type: biochemical; conditions: for IC50: read-out: IC50 [nM] h17β-HSD2
T6 construct: 17β-HSD2 was obtained from the microsomal fraction; from tissue; host or cells: human placenta, microsomal fraction
T6 sequence (P37059 1-387): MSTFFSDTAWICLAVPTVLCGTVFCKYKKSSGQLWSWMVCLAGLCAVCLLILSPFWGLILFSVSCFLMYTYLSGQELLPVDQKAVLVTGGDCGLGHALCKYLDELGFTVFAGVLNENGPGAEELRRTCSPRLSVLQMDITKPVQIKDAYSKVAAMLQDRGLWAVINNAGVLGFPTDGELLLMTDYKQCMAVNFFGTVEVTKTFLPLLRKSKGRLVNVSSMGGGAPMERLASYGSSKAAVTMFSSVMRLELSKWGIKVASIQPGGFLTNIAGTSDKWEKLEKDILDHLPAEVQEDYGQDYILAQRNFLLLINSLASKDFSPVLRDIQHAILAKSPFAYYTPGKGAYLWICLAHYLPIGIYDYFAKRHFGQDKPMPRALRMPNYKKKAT

in vitro = conditions: human, pooled human liver S9 fraction
[2] = read-out: Inhibition @ 1 μM m17β-HSD1
[3] = human placental cytosolic enzyme, E1 500 nM, NADH, Tables 1, 4-11, read-out: IC50 [nM] h17β-HSD1
[4] = read-out: % inhibition m17β-HSD1 @ 1 μM

Compound | inhibition at 1 µM (mouse 17β-HSD2) [%] | inhibition at 1 µM (mouse 17β-HSD1; [2]) [%] | IC50 (human 17β-HSD1; [3]) [nM] | CLint [1] | IC50 (human 17β-HSD2) [nM] | half-life at 1 µM (in vitro) [min] | inhibition at […] (rat 17β-HSD2) [%] | other results
O=C(c1ccc(-c2ccc(F)cc2F)s1)c1c(F)ccc(O)c1F [Compound 10, (2,6-Difluoro-3-hydroxy-phenyl)-[5-(2,4-difluoro-phenyl)-thiophen-2-yl]-methan-one] | 67 | 41 | 3.5 | – | – | – | 66 | inhibition at 1 µM (mouse 17β-HSD1; Tables 4 and 6, no % sign and concentration not given, Table 1 lists these compounds as inhibition @ 1 μM, read-out: IC50 [nM] or % inhibition m17β-HSD1 (bare number, kind not marked)): 41%; inhibition at […] (rat 17β-HSD1; Cmpd conc. 250 nM): 63%
O=C(c1ccc(-c2cccc(Cl)c2)s1)c1c(F)ccc(O)c1F [Compound 11, [5-(3-Chloro-phenyl)-thiophen-2-yl]-(2,6-difluoro-3-hydroxy-phenyl)-methanone] | 75 | 60 | 1.2 | 160.7 | 10 | 4.3 | – | –
COc1ccc(-c2ccc(C(=O)c3c(F)ccc(O)c3F)s2)cc1Cl [Compound 12, [5-(3-Chloro-4-methoxy-phenyl)-thiophen-2-yl]-(2,6-difluoro-3-hydroxy-phenyl)-methanone] | 64 | 40 | 1.3 | 149.6 | 11 | 4.6 | – | –
COc1c(Cl)cc(-c2ccc(C(=O)c3c(F)ccc(O)c3F)s2)cc1Cl [Compound 15, [5-(3,5-Dichloro-4-methoxy-phenyl)-thiophen-2-yl]-(2,6-difluoro-3-hydroxy-phen-yl)-methanone] | – | 43 | 0.6 | 38.3 | 41 | 18.1 | – | IC50 (mouse 17β-HSD2; mouse liver microsomal fraction, E2 10 nM, NAD+): 550 nM
Cc1cc(C(=O)c2c(F)ccc(O)c2F)sc1-c1ccc(O)c(Cl)c1 [Compound 21, [5-(3-Chloro-4-hydroxy-phenyl)-4-methyl-thiophen-2-yl]-(2,6-difluoro-3-hydroxy-phenyl)-methanone] | – | 38 | 0.8 | 241.4 | 11 | 2.9 | – | IC50 (mouse 17β-HSD2): 78 nM
O=C(c1ccc(-c2cc(Cl)c(O)c(Cl)c2)s1)c1c(F)ccc(O)c1F [Compound 23, [5-(3,5-Dichloro-4-hydroxy-phenyl)-thiophen-2-yl]-(2,6-difluoro-3-hydroxy-phen-yl)-methanone] | – | 23 | – | 5.4 | 39 | 129 | – | IC50 (mouse 17β-HSD2): 209 nM; inhibition at 5 µM (rat 17β-HSD1): 59%; IC50 (human 17β-HSD1; read-out: IC50 [nM] h17β-HSD1): 2.4 nM
O=C(c1ccc(-c2cc(Cl)c(O)c(Cn3ccnn3)c2)s1)c1c(F)ccc(O)c1F [Compound 32, [5-(3-Chloro-4-hydroxy-5-[1,2,3]triazol-1-ylmethyl-phenyl)-thiophen-2-yl]-(2,6-difluoro-3-hydroxy-phenyl)-methanone] | – | – | – | – | – | – | 66 | Inhibition @ 1 μM m17β-HSD1 (mouse 17β-HSD1; compound 1 μM, Table 1, bare numbers): n.i.^c; % Inhibition r17β-HSD1 (rat 17β-HSD1; Cmpd conc. 250 nM): n.i.^c; inhibition at 1 µM (human 17β-HSD1; read-out: % inhibition h17β-HSD1 @ 1 μM): 37%; inhibition at 1 µM (human 17β-HSD2; read-out: % inhibition h17β-HSD2 @ 1 μM): 30%
O=C(c1ccc(-c2cccc(NS(=O)(=O)c3ccc(Br)cc3OC(F)(F)F)c2)s1)c1cc(F)c(F)c(O)c1F [Compound 36, 4-Bromo-N-{3-[5-(2,4,5-trifluoro-3-hydroxybenzoyl)thiophen-2-yl]phenyl}-2-trifluoromethoxybenzenesulfonamide] | – | 68 | – | – | – | – | 100 | inhibition at 1 µM (mouse 17β-HSD1; [4]): 68%; inhibition at […] (rat 17β-HSD1; Cmpd conc. 250 nM): 50%; IC50 (human 17β-HSD1): 2.4 nM
O=C(c1ccc(-c2cccc(NS(=O)(=O)c3ccccc3C(F)(F)F)c2)s1)c1cc(F)c(F)c(O)c1F [Compound 38, N-{3-[5-(2,4,5-Trifluoro-3-hydroxybenzoyl)thiophen-2-yl]phenyl}-2-trifluoromethylbenzenesulfonamide] | – | 81 | – | – | – | – | 96 | inhibition at 1 µM (mouse 17β-HSD1; [4]): 81%; inhibition at […] (rat 17β-HSD1; Cmpd conc. 250 nM): 41%; IC50 (human 17β-HSD1): 4.8 nM

Now from value to compound, other results behind:

inhibition at 1 µM (mouse 17β-HSD2) [%] | inhibition at 1 µM (mouse 17β-HSD1; [2]) [%] | IC50 (human 17β-HSD1; [3]) [nM] | CLint [1] | IC50 (human 17β-HSD2) [nM] | half-life at 1 µM (in vitro) [min] | Compound | inhibition at […] (rat 17β-HSD2) [%] | other results
40 | 23 | 3.3 | 64.5 | 29 | 10.7 | N#Cc1cc(-c2ccc(C(=O)c3c(F)ccc(O)c3F)s2)ccc1O [Compound 25, 5-[5-(2,6-Difluoro-3-hydroxy-benzoyl)-thiophen-2-yl]-2-hydroxy-benzonitrile] | – | –
89 | 33 | 1.1 | 61.5 | 3.1 | 11.3 | O=C(c1ccc(-c2ccc(O)c(Cl)c2)s1)c1cc(F)c(F)c(O)c1F [Compound 41, (5-(3-Chloro-4-hydroxyphenyl)thiophen-2-yl)(2,4,5-trifluoro-3-hydroxyphenyl)methanone] | – | –
– | – | 0.9 | 18.2 | 1.3 | 38 | Cc1cc(-c2ccc(C(=O)c3cc(F)c(F)c(O)c3F)s2)cc(C)c1O [Compound 50, (5-(4-Hydroxy-3,5-dimethylphenyl)thiophen-2-yl)(2,4,5-trifluoro-3-hydroxyphenyl)methanone] | – | IC50 (mouse 17β-HSD2): 100 nM; IC50 (mouse 17β-HSD1; recombinant mouse enzyme, E1 10 nM, NADPH, read-out: IC50 m17β-HSD1): 650 nM
22 | 18 | – | 193.8 | 384 | 3.6 | Cc1cc(-c2ccc(C(=O)c3cccc(O)c3)s2)ccc1O [Compound F1, reference compound] | – | inhibition at 5 µM (rat 17β-HSD1): 48%; IC50 (human 17β-HSD1; read-out: IC50 [nM] h17β-HSD1): 8 nM
